Test results taken from US9345247B2, “Azaindole carboxylic acid amides and azaindole thiocarboxylic acid amides for use as insecticides and acaricides” (BAYER CROPSCIENCE AG, priority 2012, dated 2016).
Read-outs that look alike come from different tables or passages of the source.

Columns and labels:
[1] = log P by HPLC on reversed-phase column (C18), EEC directive 79/831 Annex V.A8; type: physicochemical; conditions: for chromatographic logP: reversed-phase HPLC column (C18)
Protocol: a) The determination of the W by LC-MS in the acidic range is effected at pH 2.7, acetonitrile (contains 0.1% formic acid) and water as eluents; linear gradient from 10% acetonitrile to 95% acetonitrile, instrument: Agilent 1100 LC-System, Agilent MSD System, HTS PAL. The log P values reported in the tables and Preparation Examples above were determined in accordance with EEC directive 79/831 Annex V.A8 by HPLC (High Performance Liquid Chromatography) using a reversed-phase column (C18). Temperature 43° C. The calibration is effected with unbranched alkan-2-ones (having 3 to 16 carbon atoms), for which the log P values are known.

[2] = test system: larvae of the mustard beetle (Phaedon cochleariae); assay: Phaedon cochleariae spray test (PHAECO); type: in vivo; conditions: for efficacy / pest or weed control at 100 g/ha: spray, after 7 days; for pest or weed control at 100 g/ha / percent efficacy (larval mortality) at 20 g/ha: Phaedon cochleariae, 168 h; for pest or weed control at 100 g/ha: read-out: efficacy; for percent efficacy (larval mortality) at 20 g/ha: PHAECO, 20 g of ai/ha, 7 d, read-out: % Efficacy dat
Protocol: Phaedon cochleariae—Spray Test (PHAECO)
To produce a suitable preparation of active compound, 1 part by weight of active compound is mixed with the stated amounts of solvent and emulsifier, and the concentrate is diluted with emulsifier-containing water to the desired concentration.
Discs of Chinese cabbage leaves (Brassica pekinensis) are sprayed with an active compound formulation of the desired concentration and, after drying, populated with larvae of the mustard beetle (Phaedon cochleariae).
After 7 days, the efficacy in % is determined. 100% means that all the beetle larvae have been killed; 0% means that no beetle larvae have been killed.
After the stated period of time, the effect in % is determined 100% means that all the beetle larvae have been killed; 0% means that no beetle larvae have been killed.

[3] = HPLC, acidic range pH 2.7, 43° C.
[4] = HPLC, acidic range pH 2.7, 43° C., read-out: log p
[5] = pH 2.7, final compounds of the synthesis examples, read-out: log P (HPLC-MS)

| Structure (SMILES) | log p [1, 3] | efficacy ([2]; 100 g/ha) | further results |
| --- | --- | --- | --- |
| CCn1c(C(=O)NC(c2ccc(Cl)c(C(F)(F)F)c2)C(F)(F)F)cc2cc(C(=O)NC3CC3)c(Cl)nc21 (centres unmarked) [Compound 88] | 4.06 |  |  |
| CCn1c(C(=O)NC(c2ccc(F)c(C(F)(F)F)c2)C(F)(F)F)cc2cc(C(=O)NCc3ccccn3)c(Cl)nc21 (centres unmarked) [Compound 55] | 3.32 | 83% |  |
| CCCNC(=O)c1cc2cc(C(=O)NC(c3cccc(C(F)(F)F)c3)C(F)(F)F)n(CC)c2nc1Cl (centres unmarked) [Compound 34] |  |  | pest or weed control at 100 g/ha ([2]; 100 g/ha): 100%; percent efficacy (larval mortality) at 20 g/ha [2]: 100%; chromatographic logP [1, 4]: 3.99 |
| C#CCn1c(C(=O)NC(c2cc(Cl)c(F)c(Cl)c2)C(F)(F)F)cc2cc(C(=O)NC3CC3)c(C(F)(F)F)nc21 (centres unmarked) [Compound 79] | 4.04 |  |  |
| CCn1c(C(=O)NC(c2ccc(Cl)c(Cl)c2)C(F)(F)F)cc2cc(C(=O)NC(C)C)c(Cl)nc21 (centres unmarked) [Compound 56] | 4.29 |  |  |
| CCn1c(C(=O)NC(c2cccc(C(F)(F)F)c2)C(F)(F)F)cc2cc(CNC(C)=O)c(C)nc21 (centres unmarked) [Compound 94, 5-(Acetamidomethyl)-1-ethyl-6-methyl-N-{2,2,2-trifluoro-1-[3-(trifluoromethyl)phenyl]ethyl}-1H-pyrrolo[2,3-b]pyridine-2-carboxamide] |  |  | pest or weed control at 100 g/ha ([2]; 100 g/ha): 100%; chromatographic logP [1, 5]: 3.16 |
| CCn1c(C(=O)NC(c2cc(Cl)c(F)c(Cl)c2)C(F)(F)F)cc2cc(C(=O)NC(C)C)c(Cl)nc21 (centres unmarked) [Compound 21] | 4.44 |  |  |
| CCn1c(C(=O)NC(c2cccc(C(F)(F)F)c2)C(F)(F)F)cc2cc(C(=O)NC(C)C)c(Cl)cc21 (centres unmarked) [reference compound] |  |  | percent efficacy (larval mortality) at 20 g/ha [2]: 0% |
| CCn1c(C(=O)NC(c2cccc(C(F)(F)F)c2)C(F)(F)F)cc2cc(C(=O)NCc3ncccn3)c(Cl)nc21 (centres unmarked) [Compound 47] | 3.39 | 100% |  |
| CCn1c(C(=O)NC(c2ccc(Cl)c(C(F)(F)F)c2)C(F)(F)F)c(Br)c2cc(C(=O)NC3(C(N)=S)CC3)c(C)nc21 (centres unmarked) [Compound 98] |  |  | chromatographic logP [1, 4]: 3.97 |
| CCn1c(C(=O)NC(c2cccc(C(F)(F)F)c2)C(F)(F)F)cc2cc(C(=O)NC(CF)CF)c(Cl)nc21 (centres unmarked) [Compound 35] | 3.83 |  |  |
| CCn1c(C(=O)NC(c2cc(Cl)c(F)c(Cl)c2F)C(F)(F)F)cc2cc(C(=O)NC3(C(N)=S)CC3)c(C(F)(F)F)nc21 (centres unmarked) [Compound 82] | 4.45 |  |  |
| CCn1c(C(=O)NC(c2cc(Cl)c(F)c(Cl)c2)C(F)(F)F)cc2cc(C(=O)NC3CC3)c(C(F)(F)F)nc21 (centres unmarked) [Compound 86] | 4.42 |  |  |
| CCn1c(C(=O)NC(c2ccc(Cl)c(C(F)(F)F)c2)C(F)(F)F)cc2cc(C(=O)NC3CC3)c(C)nc21 (centres unmarked) [Compound 91] | 3.90 |  |  |
| CCn1c(C(=O)NC(c2cc(Cl)c(F)c(Cl)c2)C(F)(F)F)cc2cc(C(=O)NC3CCC3)c(Cl)nc21 (centres unmarked) [Compound 48] | 4.62 |  |  |
| CN(C(=O)c1cc2cc(C(=O)NC3CC3)c(Cl)nc2n1C)C(c1cccc(C(F)(F)F)c1)C(F)(F)F (centres unmarked) [Compound 96] |  |  | pest or weed control at 100 g/ha ([2]; 100 g/ha): 100%; chromatographic logP [1, 4]: 3.63 |
| C#CCn1c(C(=O)NC(c2cccc(C(F)(F)F)c2)C(F)(F)F)cc2cc(C(=O)NC3(C#N)CC3)c(C)nc21 (centres unmarked) [Compound 81] | 3.34 |  |  |
| CCn1c(C(=O)NC(c2ccc(Cl)c(C(F)(F)F)c2)C(F)(F)F)cc2cc(C(=O)NC3(C#N)CC3)c(C)nc21 (centres unmarked) [Compound 90] | 3.91 |  |  |
| CCC(=O)NCc1cc2cc(C(=O)NC(c3cccc(C(F)(F)F)c3)C(F)(F)F)n(CC)c2nc1C (centres unmarked) [Compound 93] | 3.45 | 100% |  |
| CCn1c(C(=O)NC(c2ccc(F)c(C(F)(F)F)c2)C(F)(F)F)cc2cc(C(=O)NC3CCC3)c(Cl)nc21 (centres unmarked) [Compound 46] | 4.20 | 100% |  |
| CCn1c(C(=O)NC(c2cc(Cl)c(F)c(Cl)c2)C(F)(F)F)cc2cc(C(=O)NC3(C(N)=S)CC3)c(C(F)(F)F)nc21 (centres unmarked) [Compound 78] | 4.25 |  |  |
| C#CCNC(=O)c1cc2cc(C(=O)NC(c3cccc(C(F)(F)F)c3)C(F)(F)F)n(CC)c2nc1Cl (centres unmarked) [Compound 45] | 3.69 | 100% |  |
| CCn1c(C(=O)NC(c2cccc(C(F)(F)F)c2)C(F)(F)F)cc2cc(C(=O)NCC3CC3)c(Cl)nc21 (centres unmarked) [Compound 57] | 4.06 | 100% |  |
| C#CCn1c(C(=O)NC(c2cccc(C(F)(F)F)c2)C(F)(F)F)cc2cc(C(=O)NC(C)C)c(Cl)nc21 (centres unmarked) [Compound 24] | 3.68 | 100% | efficacy ([2]; 500 g/ha): 100% |
| CCn1c(C(=O)NC(c2cccc(C(F)(F)F)c2)C(F)(F)F)cc2cc(C(=O)NCC(F)F)c(Cl)nc21 (centres unmarked) [Compound 13] | 3.79 | 100% |  |

| Structure (SMILES) | log p [1, 3] | efficacy ([2]; 100 g/ha) | further results |
| --- | --- | --- | --- |
| CCn1c(C(=O)NC(c2cccc(C(F)(F)F)c2)C(F)(F)F)cc2cc(CNC(=O)C3CC3)c(C)nc21 (centres unmarked) [Compound 92] | 3.59 |  |  |
| CCn1c(C(=O)NC(c2ccc(Cl)c(Cl)c2)C(F)(F)F)cc2cc(C(=O)NC3CCC3)c(Cl)nc21 (centres unmarked) [Compound 54] | 4.47 |  |  |
| CCCNC(=O)c1cc2cc(C(=O)NC(c3cccc(C(F)(F)F)c3)C(F)(F)F)n(CC)c2cc1Cl (centres unmarked) [reference compound] |  |  | percent efficacy (larval mortality) at 20 g/ha [2]: 67% |
| CCn1c(C(=O)NC(c2cc(Cl)c(F)c(Cl)c2)C(F)(F)F)cc2cc(C(=O)NC3(C#N)CC3)c(C(F)(F)F)nc21 (centres unmarked) [Compound 77] | 4.36 |  |  |
| CCn1c(C(=O)NC(c2ccc(F)c(C(F)(F)F)c2)C(F)(F)F)cc2nc(C(=O)NC3CC3)ccc21 (centres unmarked) [Compound 2, N^5-Cyclopropyl-1-ethyl-N^2-{2,2,2-trifluoro-1-[4-fluoro-3-(trifluoromethyl)phenyl]ethyl}-1H-pyrrolo[3,2-b]pyridine-2,5-dicarboxamide] |  |  | chromatographic logP [1, 5]: 3.78 |
| CCn1c(C(=O)NC(c2ccc(Cl)c(C(F)(F)F)c2)C(F)(F)F)cc2cc(C(=O)NC3(C(N)=S)CC3)c(C)nc21 (centres unmarked) [Compound 89] | 3.72 |  |  |
| CCn1c(C(=O)NC(c2cc(Cl)c(F)c(Cl)c2F)C(F)(F)F)cc2cc(C(=O)NC3CC3)c(C(F)(F)F)nc21 (centres unmarked) [Compound 87] | 4.66 |  |  |
| CCNC(=O)c1cc2cc(C(=O)NC(c3cccc(C(F)(F)F)c3)C(F)(F)F)n(CC)c2nc1Cl (centres unmarked) [Compound 52] | 3.70 | 100% |  |
| CN(C(=O)c1cc2cc(C(=O)NC3(C#N)CC3)c(Cl)nc2n1C)C(c1cccc(C(F)(F)F)c1)C(F)(F)F (centres unmarked) [Compound 97] |  |  | pest or weed control at 100 g/ha ([2]; 100 g/ha): 100%; chromatographic logP [1, 4]: 3.59 |
| CCn1c(C(=O)NC(c2cccc(C(F)(F)F)c2)C(F)(F)F)cc2cc(C(=O)NC)c(Cl)nc21 (centres unmarked) [Compound 51] | 3.40 | 100% |  |
| CCn1c(C(=O)NC(c2cccc(C(F)(F)F)c2)C(F)(F)F)cc2cc(C(=O)NC(C)C)c(Cl)nc21 (centres unmarked) [Compound 14] |  |  | pest or weed control at 100 g/ha ([2]; 100 g/ha): 100%; percent efficacy (larval mortality) at 20 g/ha [2]: 100%; chromatographic logP [1, 4]: 3.97 |
| CCn1c(C(=O)NC(c2cc(Cl)c(F)c(Cl)c2F)C(F)(F)F)cc2cc(C(=O)NC(C)C)c(Cl)nc21 (centres unmarked) [Compound 19] | 4.62 |  |  |
| CCn1c(C(=O)NC(c2ccc(Cl)c(C(F)(F)F)c2)C(F)(F)F)cc2cc(C(=O)NC3(C#N)CC3)c(Cl)nc21 (centres unmarked) [Compound 83] | 4.02 |  |  |
| CCn1c(C(=O)NC(c2ccc(F)c(C(F)(F)F)c2)C(F)(F)F)cc2cc(C(=O)NC(C)C)c(Cl)nc21 (centres unmarked) [Compound 50] | 4.08 | 100% |  |
| CCn1c(C(=O)NC(c2cccc(C(F)(F)F)c2)C(F)(F)F)cc2cc(C(=O)NCc3ccccn3)c(Cl)nc21 (centres unmarked) [Compound 37] | 3.18 | 100% |  |
| CCn1c(C(=O)NC(c2cc(Cl)c(F)c(Cl)c2)C(F)(F)F)cc2cc(C(=O)NC3CC3)c(Cl)nc21 (centres unmarked) [Compound 20] | 4.23 | 100% |  |
| CCn1c(C(=O)NC(c2cccc(C(F)(F)F)c2)C(F)(F)F)cc2cc(C(=O)NC(C)CF)c(Cl)nc21 (centres unmarked) [Compound 36] | 3.83 |  |  |
| CCn1c(C(=O)NC(c2cccc(C(F)(F)F)c2)C(F)(F)F)cc2cc(C(=O)NC(CF)CF)c(C)nc21 (centres unmarked) [Compound 8] | 3.67 | 100% |  |
| CCn1c(C(=O)NC(c2ccc(F)c(Cl)c2)C(F)(F)F)cc2cc(C(=O)NC3CCC3)c(Cl)nc21 (centres unmarked) [Compound 49] | 4.11 |  |  |
| CCn1c(C(=O)NC(c2ccc(Cl)c(C(F)(F)F)c2)C(F)(F)F)cc2cc(C(=O)NC3(C(N)=S)CC3)c(Cl)nc21 (centres unmarked) [Compound 84] | 3.90 |  |  |
| CCn1c(C(=O)NC(c2cc(Cl)c(F)c(Cl)c2F)C(F)(F)F)cc2cc(C(=O)NC3CC3)c(Cl)nc21 (centres unmarked) [Compound 18] | 4.43 | 100% |  |
| CCn1c(C(=O)NC(c2cccc(C(F)(F)F)c2)C(F)(F)F)cc2cc(C(=O)NCC(=O)OC)c(Cl)nc21 (centres unmarked) [Compound 44] | 3.58 |  |  |
| CCn1c(C(=O)NC(c2cccc(C(F)(F)F)c2)C(F)(F)F)cc2cc(C(=O)Nc3ccc(Cl)cn3)c(Cl)nc21 (centres unmarked) [Compound 40] | 4.88 | 83% | efficacy ([2]; 500 g/ha): 100% |
| C#CCn1c(C(=O)NC(c2cc(Cl)c(F)c(Cl)c2F)C(F)(F)F)cc2cc(C(=O)NC3(C#N)CC3)c(Cl)nc21 (centres unmarked) [Compound 80] | 3.99 |  |  |
